Experimental findings from US20060110803A1 (Crucell Holland B.V., priority 2003, published 2006) are described below.

In this test the test system is antibodies in sera of individuals which have been and/or are infected by SARS-CoV (SARS-green, SARS-yellow, 1a, 1b, 2, 6, 37, 62, London). Format: binding, human.

With AKNLNESLIDLQELG [SEQ ID NO:1186], the “recognition by sera of SARS-CoV infected individuals, looped/cyclic form” value (“recognition by sera … looped/cyclic form” below) is on record as “recognized in looped/cyclic form”.

Turning to AKTSVDCNMYICGDS [SEQ ID NO:742], the “recognition by sera of SARS-CoV infected individuals, linear form” value (from here on “recognition by sera … linear form”) is on record as “recognized in linear form”. ALNTLVKQLSSNFGA [SEQ ID NO:968]: the “recognition by sera … looped/cyclic form” value is recorded as “recognized in looped/cyclic form”.

Consider ALVSGTATAGWTFGA [SEQ ID NO:886], for which the “recognition by sera … linear form” value is “recognized in linear form”. For AQALNTLVKQLSSNF [SEQ ID NO:966], the “recognition by sera … looped/cyclic form” value was “recognized in looped/cyclic form”. For the sequence ATAGWTFGAGAALQI [SEQ ID NO:892], the “recognition by sera … linear form” value is “recognized in linear form”. On the same count and under the same terms, the entry for CNMYICGDSTECANL [SEQ ID NO:748] is “recognized in linear form”.

On to CTPPALNCYWPLNDY [SEQ ID NO:495], for which the “recognition by sera … looped/cyclic form” value is “recognized in looped/cyclic form”.

In the case of DCNMYICGDSTECAN [SEQ ID NO:747], the “recognition by sera … linear form” value is recorded as “recognized in linear form”. For the sequence DKVEAEVQIDRLITG [SEQ ID NO:995], the “recognition by sera … looped/cyclic form” value is listed as “recognized in looped/cyclic form”. The same measure, in the same setting: to DKYFKNHTSPDVDLG [SEQ ID NO:1149] belongs “recognized in looped/cyclic form”; to DPLQPELDSFKEELD [SEQ ID NO:1137], “recognized in looped/cyclic form”; to DRLNEVAKNLNESLI [SEQ ID NO:1180], “recognized in looped/cyclic form”. As to DSFKEELDKYFKNHT [SEQ ID NO:1144], the “recognition by sera … looped/cyclic form” value is listed as “recognized in looped/cyclic form”. For the sequence DVVNQNAQALNTLVK [SEQ ID NO:960], the “recognition by sera … looped/cyclic form” value is given as “recognized in looped/cyclic form”. Turning to ELDKYFKNHTSPDVD [SEQ ID NO:1147], the “recognition by sera … looped/cyclic form” value is on record as “recognized in looped/cyclic form”.

Take ELDSFKEELDKYFKN [SEQ ID NO:1142]: the “recognition by sera … looped/cyclic form” value is “recognized in looped/cyclic form”.

For ESLTTTSTALGKLQD [SEQ ID NO:946], the “recognition by sera … looped/cyclic form” value is “recognized in looped/cyclic form”. Consider EVAKNLNESLIDLQE [SEQ ID NO:1184], for which the “recognition by sera … looped/cyclic form” value was “recognized in looped/cyclic form”.

On to EVMPVSMAKTSVDCN [SEQ ID NO:735], for which the “recognition by sera … looped/cyclic form” value is on record as “recognized in looped/cyclic form”. Same read-out and setting: to FIAGLIAIVMVTILL [SEQ ID NO:1216] belongs “recognized in looped/cyclic form”; to FIFLLFLTLTSGSDL [SEQ ID NO:41], “recognized in looped/cyclic form”; to FKNHTSPDVDLGDIS [SEQ ID NO:1152], “recognized in looped/cyclic form”. The same measure, in the same setting: to FLLFLTLTSGSDLDR [SEQ ID NO:43] belongs “recognized in looped/cyclic form”; to FLTLTSGSDLDRCTT [SEQ ID NO:46], “recognized in looped/cyclic form”; to FNGLTVLPPLLTDDM [SEQ ID NO:865], “recognized in looped/cyclic form”. In the case of FSPDGKPCTPPALNC [SEQ ID NO:488], the “recognition by sera … linear form” value was “recognized in linear form”.

Take GFIAGLIAIVMVTIL [SEQ ID NO:1215]: the “recognition by sera … looped/cyclic form” value is listed as “recognized in looped/cyclic form”. The same measure, in the same setting: the entry for GSDLDRCTTFDDVQA [SEQ ID NO:52] is “recognized in looped/cyclic form”.

Turning to GTATAGWTFGAGAAL [SEQ ID NO:890], the “recognition by sera … linear form” value is “recognized in linear form”.
